These results are taken from patent US5554378A, “Pharmaceutical composition and its mucosal use” (Takeda Chemical Industries, Ltd., priority 1990, dated 1996).

Series [1] is described as follows: Blood glucose after intranasal delivery of insulin to rats. In kind it is in vivo, Male SD rats. The settings on record: for Glucose (% relative to glucose level before administration): intranasal, insulin 10 U/kg, mean ± SE, n = 5 (SE in parentheses). The procedure:
(§1) Male SD rats (5 per group) weighing about 220 g were fasted for 16 hours. Under pentobarbital anaesthesia, the animals were prepared for intranasal therapy according to the procedure described in International Journal of Pharmaceutics 7, 317 (1981). Then, using a micropipet, 0.1 ml/kg of an insulin solution was directly administered into the nasal cavity and the blood was serially sampled from the tail vein for determination of blood glucose and insulin concentrations.
(§2) As said insulin solution, a solution of 10U of porcine insulin (about 0.38 mg) and 0 mg-5 mg of LThB (corresponding to 5%) in 0.1 ml of isotonic buffer (pH 7.4) was used.
(§3) Insulin dose: 10 U/Kg, SD rats, 7W, .male., 220 g
*% relative to glucose level before administration (mean ± SE, n = 5)

A short description of series [2]: Plasma insulin level (EIA, GLAZYME Kit) after intranasal delivery of insulin to rats. In kind it is in vivo, Male SD rats. The conditions noted are these: for Insulin (plasma insulin level): insulin 10 U/kg. The procedure:
as §1, §2, §3
Plasma insulin level: EIA (GLAZYME Kit, Wako)

LThB: the “Blood glucose level on addition of LThB, compared with the control (without LThB)” value in series [1] (intranasal with insulin, vs control without LThB) is “marked fall of blood glucose level”.
As to “insulin, No addition: 10U of porcine insulin (about 0.38 mg) in 0.1 ml of isotonic buffer (pH 7.4), without LThB”, the “Glucose (% relative to glucose level before administration)” value in series [1] (0.5 hr) is 135.9 (10.5) %; in series [1] (1.0 hr), 141.7 (8.6) %; in series [1] (1.5 hr), 133.4 (11.2) %; in series [1] (2.0 hr), 127.3 (9.1) %; in series [1] (3.0 hr) it was 132.9 (11.4) %; in series [1] (4.0 hr) it was 136.3 (13.5) %. Also, the “Insulin (plasma insulin level)” value was 0.83 μU/ml in series [2] (0.5 hr); 0.0 μU/ml in series [2] (1.0 hr); 0.0 μU/ml in series [2] (1.5 hr); 0.0 μU/ml in series [2] (2.0 hr); 4.51 μU/ml in series [2] (3.0 hr); 0.0 μU/ml in series [2] (4.0 hr). For the same substance, the “Absorption of insulin from the nasal mucosa (blood insulin concentration)” value in series [2] (with addition of LThB) was “effectively absorbed from the nasal mucosa”.
